IC50, Activity and inhibition data for 11 molecules are collected here from ChEMBL document CHEMBL4138296, “Nonacidic Chemotype Possessing N-Acylated Piperidine Moiety as Potent Farnesoid X Receptor (FXR) Antagonists” (ACS Med Chem Lett, 2018).

Experiment [1] addresses T1, Bile acid receptor (Homo sapiens, UniProt Q96RI1).
T1 sequence (Q96RI1 whole entry): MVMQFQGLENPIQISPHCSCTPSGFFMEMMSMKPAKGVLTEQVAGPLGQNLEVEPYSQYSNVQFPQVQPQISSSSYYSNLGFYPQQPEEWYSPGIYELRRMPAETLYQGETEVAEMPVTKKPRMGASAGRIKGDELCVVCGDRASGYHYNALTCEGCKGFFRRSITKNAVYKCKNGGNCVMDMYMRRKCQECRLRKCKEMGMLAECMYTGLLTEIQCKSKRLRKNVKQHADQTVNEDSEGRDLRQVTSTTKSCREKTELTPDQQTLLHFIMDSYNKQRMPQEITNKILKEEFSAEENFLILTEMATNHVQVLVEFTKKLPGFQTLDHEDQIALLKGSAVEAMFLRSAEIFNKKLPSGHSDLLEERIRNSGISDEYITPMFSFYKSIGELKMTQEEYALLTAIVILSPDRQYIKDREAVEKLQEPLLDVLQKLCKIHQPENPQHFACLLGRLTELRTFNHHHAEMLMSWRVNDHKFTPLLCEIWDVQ
The experiment can be described thus: Antagonist activity at GST-tagged FXR LBD (unknown origin) assessed as inhibition of GW4064-induced fluorecein-labeled SRC2-2 coactivator recruitment by Lanthascreen TR-FRET assay.

Experiment [2] has as its target T1, Bile acid receptor. The experiment is described as follows: Antagonist activity at human FXR expressed in Hep3B cells assessed as inhibition of CDCA-induced FXR response element driven luciferase activity after 24 hrs. In kind it is cell-based.
For another experiment, the system named is Hep 3B2. The experiment can be described thus: Cytotoxicity against human Hep3B cells assessed as reduction in cell viability by MTT assay. The format is functional, cell-based.
Experiment [3] relates to 3T3-L1. The experiment is described as follows: Antiadipogenic activity in mouse 3T3L1 cells assessed as reduction in intracellular lipid droplets at 10 uM after 6 days by Oil Red O staining based assay. The format is functional, cell-based.
The subject of experiment [4] is 3T3-L1. The experiment is described as follows: Antiadipogenic activity in mouse 3T3L1 cells assessed as inhibition of CDCA-induced intracellular lipid droplets after 6 days by Oil Red O staining based assay. The format is functional, cell-based.

The structures appear in SMILES notation. Calls of active or inactive are those of the source. No cut-off for these calls is given here.

Take `CC(C)C(=O)N1CCC(C[C@@H](c2nc3ccccc3n2C)N2C(=O)CN(c3ccc(Oc4ccccc4)cc3)C2=O)CC1`: the IC50 (commonly the point on the concentration scale where inhibition reaches its midpoint) on Bile acid receptor [1] is 38 nM; on Bile acid receptor [2] it was under 0.001 nM; in the experiment with Hep 3B2, over 100 µM.

As for `C/C=C1/C(=O)C[C@H]2[C@@H]3CCC4=CC(=O)CC[C@]4(C)[C@H]3CC[C@]12C`, the result in the experiment on 3T3-L1 [3] was Active. For the same molecule, the inhibition entry in the experiment on 3T3-L1 [4] is “Dose-dependent effect”.

Regarding `CC(C)C(=O)N1CCC(C[C@@H](c2nc3cc(F)ccc3n2C)N2C(=O)CN(c3ccc(Oc4ccccc4)cc3)C2=O)CC1`, the IC50 on Bile acid receptor [1] was 340 nM; on Bile acid receptor [2] it was 0.06 nM; in the experiment with Hep 3B2, over 100 µM.

As for `CC(=O)N1CCC(C[C@@H](c2nc3ccccc3n2C)N2C(=O)CN(c3ccc(Oc4ccccc4)cc3)C2=O)CC1`, the IC50 on Bile acid receptor [1] was found to be 740 nM; on Bile acid receptor [2], 0.002 nM; in the experiment with Hep 3B2, 32.1 µM.

Consider `CC(C)C(=O)N1CCC(C[C@@H](c2nc3ccc(Cl)cc3n2C)N2C(=O)CN(c3ccc(Oc4ccccc4)cc3)C2=O)CC1`, for which the IC50 on Bile acid receptor [1] is 130 nM; on Bile acid receptor [2], 0.05 nM; in the experiment with Hep 3B2, over 100 µM.

With `Cc1ccc2nc([C@H](CC3CCNCC3)N3C(=O)CN(c4ccc(Oc5ccccc5)cc4)C3=O)n(C)c2c1`, the IC50 came to 64000 nM on Bile acid receptor [1], 4510 nM at Bile acid receptor [2] and 16.7 µM in the experiment with Hep 3B2.

For `CC(=O)N1CCC(C[C@@H](c2nc3ccc(C)cc3n2C)N2C(=O)CN(c3ccc(Oc4ccccc4)cc3)C2=O)CC1`, the IC50 at Bile acid receptor [1] worked out at 1300 nM; at Bile acid receptor [2], 0.2 nM; in the experiment with Hep 3B2 it was 17.2 µM.

As to `CC(=O)N1CCC(C[C@@H](c2nc3ccc(Cl)cc3n2C)N2C(=O)CN(c3ccc(Oc4ccccc4)cc3)C2=O)CC1`, the IC50 on Bile acid receptor [1] is 3500 nM; at Bile acid receptor [2], 0.8 nM; with Hep 3B2, over 100 µM.

Regarding `Cc1ccc2nc([C@H](CC3CCN(CC(C)C)CC3)N3C(=O)CN(c4ccc(Oc5ccccc5)cc4)C3=O)n(C)c2c1`, the IC50 at Bile acid receptor [1] is 16400 nM; on Bile acid receptor [2] it was 17400 nM; in the experiment with Hep 3B2, 6.9 µM.

As for `Cc1ccc2nc([C@H](CC3CCN(C(=O)C4CCCC4)CC3)N3C(=O)CN(c4ccc(Oc5ccccc5)cc4)C3=O)n(C)c2c1`, the IC50 on Bile acid receptor [1] was 30 nM; on Bile acid receptor [2] it was 0.006 nM; in the experiment on Hep 3B2 it was over 100 µM.

In the case of `CC(=O)N1CCC(C[C@@H](c2nc3cc(F)ccc3n2C)N2C(=O)CN(c3ccc(Oc4ccccc4)cc3)C2=O)CC1`, the IC50 was 8300 nM at Bile acid receptor [1], 1 nM on Bile acid receptor [2] and over 100 µM with Hep 3B2.
